Experimental data taken from patent US11400063B2, “Early administration of low-dose colchicine after myocardial infarction” (INSTITUT DE CARDIOLOGIE DE MONTREAL, priority 2019, dated 2022).

Assays:
[1] = COLCOT biomarkers of inflammation; type: in vivo, human; settings: baseline to 12 months
Description: (§1) Additional prespecified exploratory end points included the change from baseline to 6 months in the high-sensitivity C-reactive protein level and the change from baseline to 12 months in the white-cell count. The C-reactive protein biomarker substudy was implemented after a protocol amendment and was optional for sites and for patients; 34 sites chose to participate in this substudy.
(§2) The analysis of the primary end point was repeated in the per-protocol population (i.e., patients without major protocol deviations). Secondary and exploratory end points expressed as time to event were analyzed similarly. The changes from baseline to follow-up were analyzed with the use of an analysis of covariance model with adjustment for baseline value, and estimates of treatment effect are presented with 95% confidence intervals.
(§3) High-sensitivity C-reactive protein was measured in a subgroup of only 207 patients at the time of randomization and 6 months later, and the median concentration at trial entry was 4.28 mg per liter. […] The adjusted geometric mean percent changes in the high-sensitivity C-reactive protein level at 6 months after myocardial infarction were −70.0% in the colchicine group and −66.6% in the placebo group, and the placebo-adjusted geometric mean percent change was −10.1% percentage points in the colchicine group (95% CI, −28.6 to 13.4) (Table 17).
(§4) In Table 17, the placebo-adjusted geometric mean percent change was obtained by exponentiating the adjusted mean difference between groups from the analysis of covariance model (based on log-transformed data), then subtracting 1 and multiplying by 100.
(§5) In addition, the C-reactive protein biomarker sub-study was implemented following a protocol amendment and was optional for sites and for patients; 34 sites accepted to participate in this substudy. There were 213 and 208 patients who provided blood samples at baseline and 6 months, respectively. Paired baseline and 6-month hs-CRP values were available in 207 patients. Clinically available white blood cell counts were obtained from 2598 patients at baseline and 1998 patients at 12 months, and paired baseline and 12-month values were available in 1972 patients. Statistical analysis was conducted on the patients who provided both baseline and follow-up data and as these were exploratory analyses, no missing data was imputed.

[2] = tested on: high-sensitivity C-reactive protein level and white-cell count; test: COLCOT biomarkers of inflammation; type: in vivo, human; settings: for Hs-C reactive protein, geometric mean: N = 99; for Total white blood cell count, geometric mean: N = 992
Description: as §1, §2, §3, §4, §5

[3] = tested on: patients with stable coronary disease; settings: cited from earlier work
[4] = tested on: patients with acute coronary syndromes (ACS); settings: COPS, cited from earlier work
[5] = baseline to 12 months, listed as colchicine
[6] = LoDoCo, colchicine vs control (no colchicine)

SMILES: COc1cc2c(c(OC)c1OC)-c1ccc(OC)c(=O)cc1[C@@H](NC(C)=O)CC2 [Colchicine, colchicine]
- Circulating lymphocytes, Adjusted GM percent change [1]: 1.80%
- Hs-C reactive protein, geometric mean ([2]; 6 months): 1.37 mg/L
- Circulating lymphocytes, geometric mean ([2]; 12 months): 1.83 10^3/μL
- Circulating neutrophils, geometric mean ([2]; 12 months): 3.95 10^3/μL
- Total white blood cell count, geometric mean ([2]; 12 months): 6.95 10^3/μL
- Circulating lymphocytes, geometric mean ([2]; Randomization): 1.79 10^3/μL
- Circulating neutrophils, geometric mean ([2]; Randomization): 5.45 10^3/μL
- Hs-C reactive protein, geometric mean ([2]; Randomization): 4.27 mg/L
- Total white blood cell count, geometric mean ([2]; Randomization): 8.54 10^3/μL
- Hs-C reactive protein, Adjusted GM percent change ([2]; baseline to 6 months): −70.0%
- Hs-C reactive protein, Placebo-adjusted GM percent change ([2]; baseline to 6 months): −10.1%
- Circulating lymphocytes, Placebo-adjusted GM percent change ([2]; baseline to 12 months): 1.10%
- Circulating neutrophils, Adjusted GM percent change ([2]; baseline to 12 months): −27.63%
- Circulating neutrophils, Placebo-adjusted GM percent change ([2]; baseline to 12 months): 0.45%
- Total white blood cell count, Adjusted GM percent change ([2]; baseline to 12 months): −18.81%
- Total white blood cell count, Placebo-adjusted GM percent change ([2]; baseline to 12 months): 0.26%
- Total white blood cell count, Adjusted GM percent change [2, 5]: −18.8%
- Total white blood cell count, Placebo-adjusted GM percent change [2, 5]: 0.3%
- reduction in the C-reactive protein level ([2]; over the first 6 months after myocardial infarction, both trial groups): > 65%
- Myocardial infarction, Events N ([3]; LoDoCo, N = 250, median follow-up 24 months): 4 N
- Ischemic stroke, HR (95% CI) [3, 6]: 0.23 (0.03-2.03)
- Myocardial infarction, HR (95% CI) [3, 6]: 0.25 (0.08-0.76)
- Ischemic stroke, Events % ([3]; LoDoCo): 0.4%
- Ischemic stroke, Events N ([3]; LoDoCo): 1 N
- Myocardial infarction, Events % ([3]; LoDoCo): 1.6%
- cardiovascular events vs those not receiving colchicine ([3]; colchicine 0.5 mg once daily, 532 patients, not placebo-controlled): fewer cardiovascular events
- Primary composite outcome (cardiovascular mortality, myocardial infarction, ischemic stroke, urgent revascularization), Events N ([4]; N = 396, median follow-up 12 months): 19 N
- Cardiovascular mortality, HR (95% CI) ([4]; colchicine vs placebo): 3.09 (0.32-29.71)
- Ischemic stroke, HR (95% CI) ([4]; colchicine vs placebo): 0.34 (0.07-1.70)
- Myocardial infarction, HR (95% CI) ([4]; colchicine vs placebo): 0.52 (0.25-1.07)
- Primary composite outcome, HR (95% CI) ([4]; colchicine vs placebo): 0.47 (0.27-0.82)
- Urgent coronary revascularization, HR (95% CI) ([4]; colchicine vs placebo): 0.26 (0.07-0.92)
- all-cause mortality, HR ([4]; colchicine vs placebo): 8.20
- Cardiovascular mortality, Events % [4]: 0.8%
- Cardiovascular mortality, Events N [4]: 3 N
- Ischemic stroke, Events % [4]: 0.5%
- Ischemic stroke, Events N [4]: 2 N
- Myocardial infarction, Events % [4]: 3.7%
- Myocardial infarction, Events N [4]: 11 N
- Primary composite outcome, Events % [4]: 4.8%
- Urgent coronary revascularization, Events % [4]: 0.8%
- Urgent coronary revascularization, Events N [4]: 3 N
